Assay results reported in patent US20230143553A1, “PRECISION DELIVERY OF MULTI-SCALE PAYLOADS TO TISSUE-SPECIFIC TARGETS IN PLANTS” (MASSACHUSETTS INSTITUTE OF TECHNOLOGY, priority 2020, published 2023).

Assays:
xylem = test: Phytoinjector delivery to xylem of tomato, dye transport
Source text: Based on these parameters, phytoinjectors were designed with a tip diameter smaller than 35 μm and 10 μm for xylem and phloem, respectively (FIG. 1B, FIG. 13C and FIG. 13D). […] To investigate payload delivery in planta, each payload was loaded to phytoinjectors at the point of material assembly before drying. […] The injected petioles were sliced along the transverse section downstream and upstream at various distances from the injection site to investigate the presence of the delivered dyes. […] In xylem, transport analysis was conducted by tangential sectioning of the stem (FIG. 3E). […] To quantify payloads transport, the fluorescence intensity was integrated (see FIG. 3E). The normalized intensity distribution evolves spatially and temporally (FIG. 3F).

petiole's xylem = test: Luciferin-luciferase bioluminescent reaction after phytoinjector delivery into petiole xylem; assay type: in vivo, tomato (Solanum lycopersicum); settings: luciferin in petiole's xylem; other reagents by foliar infiltration
Source text: The phytoinjectors were applied in petiole vasculature near the leaflet to facilitate observation and imaging. At first, luciferin was deployed in the petiole's xylem while the other reagents were delivered by foliar infiltration to the leaf.

Compound | transport distance upstream of injection site (xylem) [cm] | transport distance downstream of injection site (xylem; from root to leaves) | luminescence of leaf tissue after delivery (petiole's xylem)
5(6)-carboxyfluorescein diacetate | 1 | more than 7 cm | 
O=C(O)[C@H]1CSC(c2nc3ccc(O)cc3s2)=N1 [luciferin] |  |  | showed luminescence
